Key:
AlpH = target: T1, AlpH (Streptomyces ambofaciens, UniProt Q6VMJ4); assay: surface plasmon resonance (Biacore 8K, AlpH immobilized on CM5); format: binding
T1 construct: N-terminal His6-tagged, pET28a, E. coli BL21(DE3); homodimer in the apo crystal; gene amplified from kinamycin BAC 3C2
Text: surface plasmon resonance (Biacore 8K, AlpH immobilized on CM5) on AlpH | Surface plasmon resonance analysis of AlpH and gluN2H3 also identified a specific interaction between them

[1] = target: AlpH, O-methyltransferase-like protein from the kinamycin biosynthetic gene cluster; assay: crystal structure; apo-AlpH, hanging drop vapor diffusion at 16 °C; protein in 20 mM Tris-HCl pH 7.5, 100 mM NaCl, 1 mM DTT, 1 mM EDTA; reservoir 0.03 M citric acid, 0.07 M Bis-Tris propane pH 7.6, 20% PEG3350; molecular replacement, 1.87 Å
AlpJ = target: T2, AlpJ (Streptomyces ambofaciens, UniProt Q6VMI5); assay: HPLC of products […] and […] from one-pot reaction with AlpK; format: biochemical; conditions: NADH, FAD, pH 7.5, 30 °C
T2 construct: pET28a, Ni-NTA purified from E. coli BL21(DE3); gene amplified from kinamycin BAC 3C2
T2 sequence (Q6VMI5 1-232): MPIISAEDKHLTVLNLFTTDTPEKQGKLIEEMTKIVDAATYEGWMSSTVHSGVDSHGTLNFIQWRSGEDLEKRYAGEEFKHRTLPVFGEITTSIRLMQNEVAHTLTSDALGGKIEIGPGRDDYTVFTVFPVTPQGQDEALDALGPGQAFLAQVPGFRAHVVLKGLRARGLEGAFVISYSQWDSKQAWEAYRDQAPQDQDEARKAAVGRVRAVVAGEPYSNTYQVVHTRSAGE

T1 sequence (Q6VMJ4 entry or part of it): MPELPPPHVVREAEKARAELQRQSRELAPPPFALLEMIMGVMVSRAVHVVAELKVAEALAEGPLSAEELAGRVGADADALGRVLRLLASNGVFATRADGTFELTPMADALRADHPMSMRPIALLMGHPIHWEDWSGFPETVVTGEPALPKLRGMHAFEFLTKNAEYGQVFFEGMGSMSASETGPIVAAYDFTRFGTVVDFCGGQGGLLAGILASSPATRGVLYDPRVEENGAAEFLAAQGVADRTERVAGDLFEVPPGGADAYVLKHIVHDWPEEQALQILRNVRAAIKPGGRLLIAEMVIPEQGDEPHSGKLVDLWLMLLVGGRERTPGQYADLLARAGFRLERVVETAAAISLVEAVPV

Question: `NNC(=O)CC[C@H](N)C(=O)O` [gluN2H3] was tested. Which Kd (AlpH) did it give?
Answer: The Kd was 114 nM.

Question: Which stoichiometry N [1] does the source give for “AlpH, O-methyltransferase-like protein from the kinamycin biosynthetic gene cluster (enzyme)” here?
Answer: Its stoichiometry N is 2.

Question: `Cc1cc(O)c2c3c(c(O)cc2c1)C(=O)c1c(O)cccc1C3=O` [DHR] was tested. Which “HPLC of products 1 and 6 from one-pot reaction with AlpK” value (AlpJ) did it give?
Answer: Its value is “prepared in situ by incubating AlpJ and AlpK with DHR and NADH”.

From paper PMC10477347, “O-methyltransferase-like enzyme catalyzed diazo installation in polyketide biosynthesis” (Nature Communications, 2023)
